Here are results for 11 compounds from ChEMBL document CHEMBL1201862, “PubChem BioAssay data set” (2004).

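Protocol summary: plate cells (96-well), add compound at 5 concentrations, incubate 48 h, interpolate endpoints linearly. The concentration for 50% growth inhibition is given as GI50.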 Active and inactive are the calls of the source. No stated cut-off is given here; in the data, active = GI50 up to about 1.1 µM and inactive = higher. Bounds are passed on as bounds.

Common to all, as to assay: NCI tumour cell line growth inhibition, 48 h
Assay [1] relates to HL-60.
For assay [2], the system named is HOP-62.
The subject of assay [3] is PC-3.
Assay [4] has as its system UACC-62.
Assay [5] has as its system NCI/ADR-RES.
For assay [6], the system named is M14.
Assay [7] has as its system Hs-578T.
The test system of assay [8] is HCC 2998.
For assay [9], the system named is 786-0.
The subject of assay [10] is SF-539.
Assay [11] concerns MCF7.
Assay [12] has as its system SR.
Assay [13] relates to SK-MEL-2.
In assay [14] the test system is OVCAR-3.
Assay [15] deals with ACHN.
For assay [16], the system named is SW-620.
Assay [17] has as its system OVCAR-8.
Assay [18] has as its system MDA-N.
Assay [19] relates to K562.
Assay [20] concerns MOLT-4.

In the case of `Cc1cc2c(c(S(=O)(=O)c3ccc(Cl)cc3[N+](=O)[O-])c1)NCCC2`, the GI50 was > 10 µM (inactive) in [1]; 50.9 µM (inactive) in assay [2]; 9.64 µM (inactive) in [3]; 8.11 µM (inactive) in assay [4]; 37.6 µM (inactive) in assay [5]; 41.9 µM (inactive) in assay [6]. In addition, the GI50 is > 100 µM (inactive) in [7]; > 100 µM (inactive) in assay [8]; > 100 µM (inactive) in assay [9]; > 100 µM (inactive) in assay [10]; 59.6 µM (inactive) in assay [11]; 12.2 µM (inactive) in assay [12]. Further, the GI50 in assay [13] was > 100 µM (inactive); in assay [14], > 100 µM (inactive); in assay [15] it was 18.3 µM (inactive); in assay [16], > 100 µM (inactive); in [17], > 100 µM (inactive).

`COc1cc2c(c(OC)c1)C(C)=NC(C)C2` (configuration not stated): the GI50 in [1], in assay [2], in assay [3], in [18], in assay [4] and in [19] was > 100 µM (inactive) in each case. Moreover, the GI50 in [6], in assay [7], in [8], in assay [20], in assay [9] and in [10] was > 100 µM (inactive) throughout. The GI50 in assay [11], in [12], in assay [15], in assay [16] and in [17] was > 100 µM (inactive) throughout.

On to `C(=N\N=C1NCCCN1)/c1ccc2ccccc2c1`, for which the GI50 was 5.24 µM (inactive) in [1]; 12.1 µM (inactive) in assay [2]; 10.3 µM (inactive) in assay [3]; 8.97 µM (inactive) in assay [18]; 13.5 µM (inactive) in assay [4]; 19.4 µM (inactive) in [5]. Further, the GI50 is 3.48 µM (inactive) in assay [19]; 7.98 µM (inactive) in [6]; 16.9 µM (inactive) in [7]; 2.64 µM (inactive) in assay [8]; 1.95 µM (inactive) in [20]; 11.7 µM (inactive) in assay [9]. Besides, the GI50 is 16.8 µM (inactive) in assay [10]; 3.4 µM (inactive) in assay [11]; 13.7 µM (inactive) in assay [13]; 14.7 µM (inactive) in [14]; 10.5 µM (inactive) in [15]; 12.4 µM (inactive) in assay [16]. Besides, in assay [17], the GI50 was 14.7 µM (inactive).

With `CCCC/C=C/C/C=C/CCCCCCCCC(=O)OCC1CCCN2CCCCC12` (configuration not stated), the GI50 in [1] was 17.3 µM (inactive); in [2] it was > 100 µM (inactive); in [3] it was > 100 µM (inactive); in assay [18] it was > 100 µM (inactive); in [4], 48.6 µM (inactive); in assay [5], > 100 µM (inactive). In addition, the GI50 in assay [19], in assay [6], in [7], in assay [8], in assay [20] and in assay [9] was > 100 µM (inactive) each time. Moreover, the GI50 in [10], in assay [11], in assay [13], in assay [14], in assay [15] and in assay [16] was > 100 µM (inactive) in each case. Besides, the GI50 in assay [17] is > 100 µM (inactive).

For `COc1ccc(/C=N/Nc2nnc3c(n2)c2ccccc2c2nn(-c4ccccc4Cl)nc23)cc1`, the GI50 in assay [2], in assay [3], in [18], in [4], in assay [5] and in [19] was > 100 µM (inactive) each time. Moreover, the GI50 in [6] was > 100 µM (inactive); in assay [7], 71.6 µM (inactive); in assay [20], > 100 µM (inactive); in assay [9], > 100 µM (inactive); in [13], > 100 µM (inactive); in assay [14] it was > 100 µM (inactive). Also, the GI50 in assay [15], in assay [16] and in assay [17] was > 100 µM (inactive) in each case.

On to `CSc1ncnc2c1cnn2CCCCO`, for which the GI50 in assay [1], in assay [2], in [3], in assay [18], in assay [4] and in [19] was > 100 µM (inactive) each time. Besides, the GI50 in [6], in [7], in assay [8], in assay [20], in assay [9] and in assay [10] was > 100 µM (inactive) each time. In addition, the GI50 in [11], in [12], in [13], in assay [14], in assay [15] and in assay [16] was > 100 µM (inactive) throughout.

For `CC(C)=CCN1CC(C)C(=O)Nc2ccccc21` (configuration not stated), the GI50 in assay [1], in assay [2], in assay [3], in assay [18], in [19] and in [6] was > 100 µM (inactive) each time. Moreover, the GI50 in [7] is > 100 µM (inactive); in [8] it was > 100 µM (inactive); in [20] it was > 100 µM (inactive); in assay [9] it was > 100 µM (inactive); in assay [10], > 100 µM (inactive); in [11], 61.4 µM (inactive). Further, the GI50 in assay [12] was > 100 µM (inactive); in assay [13], > 100 µM (inactive); in assay [14] it was > 100 µM (inactive); in [15], > 100 µM (inactive); in [16] it was > 100 µM (inactive); in assay [17] it was 78.9 µM (inactive).

Turning to `N#CSc1[nH]cnc1C(N)=O`, the GI50 was 2.8 µM (inactive) in assay [1]; > 100 µM (inactive) in [2]; > 100 µM (inactive) in [3]; 22.1 µM (inactive) in [18]; 79.6 µM (inactive) in [4]; > 85.5 µM (inactive) in assay [5]. Besides, the GI50 was 20 µM (inactive) in assay [19]; 62.7 µM (inactive) in [6]; > 100 µM (inactive) in [7]; > 100 µM (inactive) in [8]; > 10 µM (inactive) in [20]; 40.9 µM (inactive) in [9]. The GI50 in [10] is 77.3 µM (inactive); in assay [12] it was < 0.01 µM (active); in assay [13], > 100 µM (inactive); in [14], > 100 µM (inactive); in assay [15] it was > 100 µM (inactive); in assay [16], 90.6 µM (inactive). Further, the GI50 in [17] was > 100 µM (inactive).

On to `O=C1CC(C(OCc2ccccc2)C(OCc2ccccc2)C(OCc2ccccc2)C(COCc2ccccc2)OCc2ccccc2)CC(=O)N1` (configuration not stated), for which the GI50 in assay [1], in [2], in [3], in assay [18], in [5] and in assay [19] was > 100 µM (inactive) in each case. Also, the GI50 is > 100 µM (inactive) in assay [6]; > 100 µM (inactive) in assay [7]; > 100 µM (inactive) in assay [8]; 59 µM (inactive) in assay [20]; > 100 µM (inactive) in [9]; > 100 µM (inactive) in [12]. Further, the GI50 in assay [14], in [15], in [16] and in assay [17] was > 100 µM (inactive) throughout.

With `COc1ccc(/C=C2/S/C(=N\c3ccccc3)N(NC(=O)Cc3ccccc3)C2=O)c(OC)c1`, the GI50 was > 100 µM (inactive) in [2]; > 100 µM (inactive) in assay [18]; > 100 µM (inactive) in assay [4]; > 100 µM (inactive) in [5]; 89.9 µM (inactive) in assay [19]; > 100 µM (inactive) in assay [6]. Besides, the GI50 in assay [7] is > 100 µM (inactive); in assay [8], 82.6 µM (inactive); in assay [20] it was 68.7 µM (inactive); in assay [9], > 100 µM (inactive); in [10] it was > 100 µM (inactive); in assay [11], > 100 µM (inactive). Moreover, the GI50 in [13], in assay [14], in assay [15], in [16] and in [17] was > 100 µM (inactive) throughout.

On to `N=c1oc2ccc3ccccc3c2cc1C(N)=O`, for which the GI50 was 39.2 µM (inactive) in assay [1]; 48.3 µM (inactive) in assay [2]; 18.7 µM (inactive) in assay [3]; 37.1 µM (inactive) in assay [18]; 28 µM (inactive) in [4]; 35.5 µM (inactive) in assay [5]. Besides, the GI50 was 55.5 µM (inactive) in assay [6]; 15.6 µM (inactive) in [7]; 49.3 µM (inactive) in assay [8]; 48.6 µM (inactive) in assay [20]; 34 µM (inactive) in [9]; 34 µM (inactive) in assay [12]. In addition, the GI50 in assay [13] was 19.4 µM (inactive); in assay [14], 72.9 µM (inactive); in assay [15], 24.9 µM (inactive); in assay [16] it was 44 µM (inactive); in assay [17], 80.5 µM (inactive).
